The text below walks through data of patent US12509407B2, “Biostimulant agent for treating plants and/or plant seed” (UNIFERX INTERNATIONAL GMBH, priority 2019, dated 2025).

Format in all cases: in vivo
The test system of test [1] is sunflower hybrid SI Diamantis. Nature of the test: Comparative test 2: field trial, growth of leaf area of sunflowers under heat stress. The settings on record: heat stress >30° C., 10 days after treatment. The protocol: (§1) The field trial was conducted in June 2019 on soils with brittle black earth. The humus content was 3.2-3.4% and the depth of the humus layer was 60-70 cm. Soil pH was 6.2-6.6, alkaline hydrolyzed nitrogen content was […] per kilogram, available phosphorus compounds content was […] per kilogram, and available potassium content was […] per kilogram. The average annual precipitation was 633 millimeters, whereas the precipitation in June was 87 millimeters. The average annual temperature was 7.4° C., the average temperature in June was 17.6° C., the average relative humidity was 76%, and the average relative humidity in June was 66%.
(§2) During the duration of the field trial, the treated plants were exposed to heat stress with daily temperatures exceeding 30° C. […]
(§3) All three groups of plants were treated once with the corresponding solution at the same times and with the same quantities. […]
(§4) To determine the biological effect of the different treatments, the leaf area of the plants (sum of leaf area from the third to the sixth leaf from the top in square meters per hectare of field area) was determined in each case before the start of the treatments and 10 days after the treatment. Thereby, the biological effect corresponds to the determined increase of the leaf area at the end of the study period in percent. […]

For test [2], the system named is soybean var. Niagara. Nature of the test: Comparative test 3: field trial, increase in leaf area of soybean under heat stress. The settings on record: 10 days after treatment, third to sixth leaf from the top. The protocol:
as §1, §2, §3, §4

For test [3], the system named is corn hybrid DKC 3511. Nature of the test: Comparative test 1: field trial, growth of leaf area of corn under heat stress. The settings on record: corn DKC 3511, heat stress >30° C., 10 days after single spray treatment, 1.15 liters protein hydrolysate and/or 0.68 kilograms glycine betaine per hectare. On the procedure:
In a first field trial, the effect of the biostimulant agent according to the invention on the Growth of the leaf area of the corn hybrid DKC 3511 under heat stress was investigated. For comparison, the corresponding effect of the individual components protein hydrolysate and betaine was tested in parallel, each in the same amounts as contained in the biostimulant agent.
The field trial was conducted in June 2019 on soils with brittle black earth. The humus content was 3.2-3.4% and the depth of the humus layer was 60-70 cm. Soil pH was 6.2-6.6, alkaline hydrolyzed nitrogen content was […] per kilogram, available phosphorus compounds content was […] per kilogram, and available potassium content was 120-130 grams per kilogram. […]
as §3
To determine the biological effect of the different treatments, the leaf area of the plants (sum of leaf area from the third to the sixth leaf from the top in square meters per hectare of field area) was determined in each case before the start of the treatments and 10 days after the treatment. Thereby, the biological effect corresponds to the determined increase of the leaf area at the end of the study period in percent.

Regarding `C[N+](C)(C)CC(=O)O` [betaine, glycine betaine], the “increase in leaf area (biological effect)” value in test [1] was “no increase in leaf area was observed at all”; in test [2], “no increase in leaf area was observed at all”; in test [3], 0.2%.
